Measurements from patent publication US20040180931A1, “Methods for treating Parkinson's disease” (priority 2000, published 2004).

What was measured:
Format in all cases: in vivo, humans
[1] = tested on: patients with Parkinson's disease and mild or moderate dementia; experiment: Overall efficacy / cognitive function in crossover study
Protocol: (§1) A randomized, placebo-controlled, double-blind crossover study was conducted with fourteen patients with Parkinson's disease (13 men, 1 woman; mean age 78 (SD 3.6) years; mean duration of illness 11.4 (SD 4.9) years) who had developed cognitive impairments (mean Mini-Mental State Examination (MMSE) score 20.7 (SD 3.3)) 8.6 (SD 5.8) years after the onset of parkinsonism. […] At weeks 6 and 10 the patients completed a battery of cognitive tests. Cognitive impairments were measured using the MMSE and the CIBIC, a 7-point scale of the clinician's interview-based impression of change based upon information scored independently of the MMSE. Parkinsonism was assessed using the Unified Parkinson's Disease Rating Scale (UPDRS).

[2] = tested on: patients with Parkinson's disease who were suffering from dementia; experiment: Mini-Mental State Examination (MMSE) in randomized, placebo-controlled, double-blind crossover study; settings: 5 mg or 10 mg donepezil, 10 weeks, start of treatment to week 10
Protocol: as §1

[3] = tested on: patients with Parkinson's disease who were suffering from dementia; experiment: CIBIC+ (clinician's interview-based impression of change) in randomized, placebo-controlled, double-blind crossover study
Protocol: as §1

Structure (SMILES): COc1cc2c(cc1OC)C(=O)C(CC1CCN(Cc3ccccc3)CC1)C2 (stereo not drawn) [donepezil, 1-benzyl-4-((5,6-dimethoxy-1-indanon)-2-yl)methylpiperidine]
- all efficacy measures versus placebo ([1]; in vivo): numerical benefit
- cognitive function ([1]; treated for 10 weeks): improvement
- mean MMSE score difference from baseline to week 10 [2]: 2.1 points
- mean CIBIC+ score at week 10 ([3]; 5 mg or 10 mg donepezil, week 10, 7-point scale): 3.3
- CIBIC+ response rate (improvement, CIBIC+ score of 3 or lower) ([3]; 10 weeks of treatment): 42%
- number of patients with improvement (CIBIC+ score of 3 or lower) ([3]; 10 weeks of treatment): 5 patients
